Measurements: patent US11247970B2, “Selective inhibition of gluconeogenic activity” (Dana-Farber Cancer Institute, Inc., priority 2017, dated 2022)

Assays:
[1] = Food intake and body weight of treated mice; type: in vivo
Protocol: All mice were purchased from Jackson laboratories and housed under a 12 h light/12 h dark cycle at 22° C. Before handling, mice were allowed to acclimate for at least 1 week in our animal facility. For in vivo studies with DIO mice, males 6-8 weeks old were fed HFD for the indicated time. For drug administration, SR-18292 was re-suspended in a 10% DMSO/10% Tween80/80% PBS solution at a final concentration of 6-12 mg/ml. Metformin was re-suspended in the same solution at a 20 mg/ml concentration. SR-18292 was injected via I.P. for 3 days between 4-5 pm and food was removed on day 3 at 5 pm. […] Metformin was administered via oral gavage. […] Insulin tolerance test was performed following the same dosing protocol, but mice were fasted for 4 hours after the forth injection before performing the test. Insulin was injected via I.P. (0.5 U/Kg) and blood glucose was measured every 20 minutes. Glycemia was measured by tail bleed using a glucometer (OneTouch). For all experiments, age- and body weight-matched animals were used. For protein, RNA extracts and biochemistry studies, livers were removed following each experiment and snap frozen in liquid nitrogen. For information on number of animals in each experiment please refer to FIGS. 4, 5 and S5 legends. All studies were performed according to protocols approved by Beth Israel Deaconess Medical Center's Animal Care and Use Committee.

PGC-1α = target: T1, PGC-1α (Mus musculus, UniProt O70343); experiment: Western blot of PGC-1α acetylation in primary hepatocytes; type: cell-based; design: expressed in transfected cells; host or cells: primary hepatocytes of C57BL/6 mice infected with Ad-PGC-1α and Ad-GCN5
T1 sequence (O70343 1-797): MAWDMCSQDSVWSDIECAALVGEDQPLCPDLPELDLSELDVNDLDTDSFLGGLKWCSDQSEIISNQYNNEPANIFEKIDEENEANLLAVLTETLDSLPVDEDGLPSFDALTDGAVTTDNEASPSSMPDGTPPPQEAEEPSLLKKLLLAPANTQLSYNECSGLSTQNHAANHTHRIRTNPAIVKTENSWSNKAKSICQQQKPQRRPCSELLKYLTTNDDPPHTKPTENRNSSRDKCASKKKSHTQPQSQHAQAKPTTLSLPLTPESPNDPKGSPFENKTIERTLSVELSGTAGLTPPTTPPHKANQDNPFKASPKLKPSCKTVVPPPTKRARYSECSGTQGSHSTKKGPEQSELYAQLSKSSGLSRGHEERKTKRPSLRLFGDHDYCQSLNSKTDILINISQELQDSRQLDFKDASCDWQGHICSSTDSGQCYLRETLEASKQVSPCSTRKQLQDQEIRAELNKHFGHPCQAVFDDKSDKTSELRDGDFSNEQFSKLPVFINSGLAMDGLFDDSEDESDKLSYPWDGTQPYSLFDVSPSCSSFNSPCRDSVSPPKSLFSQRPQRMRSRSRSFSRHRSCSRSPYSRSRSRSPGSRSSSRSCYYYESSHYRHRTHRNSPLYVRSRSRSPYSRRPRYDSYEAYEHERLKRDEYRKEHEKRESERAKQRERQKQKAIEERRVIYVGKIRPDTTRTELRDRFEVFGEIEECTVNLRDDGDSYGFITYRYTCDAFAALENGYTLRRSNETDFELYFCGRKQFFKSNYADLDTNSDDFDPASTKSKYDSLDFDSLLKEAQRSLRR
Protocol: For measurement of acetylation, gene expression and glucose production SR-18292 ([…]) was added to cells overnight and fresh compound was added the following day for additional 3 h before collecting the cells (for total of ˜18 h treatment). Where insulin and glucagon stimulation were performed, the medium was changed to starvation medium (DMEM, 0.2% BSA, 2 mM sodium pyruvate, and 1% penicillin/streptomycin) with fresh compound for the last 3 h and cells were stimulated with either 100 nM insulin or 200 nM glucagon for an extra 1.5 h. For glucose measurements following PGC-1α over expression cells were incubated for the last 3 h in glucose-free medium (phenol-red/glucose free DMEM, 0.2% BSA, 2 mM sodium pyruvate and 20 mM sodium lactate or 10 mM glycerol in case glycerol was used as substrate). For glucose measurements following glucagon stimulation cells were incubated for the last 4 h in the same glucose-free medium that also contained glucagon (200 nM). The glucose level in the medium was measured using a glucose assay kit from Eton Bioscience Inc. by adding […] of assay buffer to […] of medium followed by 15 min incubation at 37° C. Absorbance was measured at 490 nm.
For PGC-1α acetylation detection in hepatocytes cells were infected with Ad-PGC-1α and Ad-GCN5. […]

Cc1ccc(CN(CC(O)COc2cccc3[nH]ccc23)C(C)(C)C)cc1 (stereo not shown) [SR-18292, 1-((1H-indol-4-yl)oxy)-3-(tert-butyl(4-methylbenzyl)amino)propan-2-ol]
food intake ([1]; first 48 hours of treatment): neither food intake nor body weight were changed | body weight ([1]; mouse, in vivo): neither food intake nor body weight were changed | PGC-1α acetylation (PGC-1α; primary hepatocytes, Ad-PGC-1α and Ad-GCN5, 18 h): increased PGC-1α acetylation | PGC-1α acetylation in presence of deacetylase inhibitors (PGC-1α; with Ex-527 (SIRT1 inhibitor) and Trichostatin A): increased acetylation of PGC-1α even in the presence of Ex-527
